Where a SMILES comes first, the peptide text is derived from it.
Key:
Type in all cases: functional
[1] = target: T1, Melanocortin receptor 4 (Mus musculus, UniProt P56450); assay: Agonist activity at mouse MC4R by alphascreen cAMP assay
[2] = target: Melanocortin receptor 5 (Mus musculus) (UniProt P41149); assay: Agonist activity at mouse MC5R at 100 uM by alphascreen cAMP assay relative to control
[3] = target: T1, Melanocortin receptor 4; assay: Antagonist activity at mouse MC4R assessed as antagonist potency by alphascreen cAMP assay; details: read-out: pA2 (converted)
[4] = target: T2, Melanocortin receptor 3 (Mus musculus, UniProt P33033); assay: Agonist activity at mouse MC3R by alphascreen cAMP assay
[5] = target: T2, Melanocortin receptor 3; assay: Antagonist activity at mouse MC3R assessed as antagonist potency by alphascreen cAMP assay; details: read-out: pA2 (converted)
[6] = target: Melanocyte-stimulating hormone receptor (Mus musculus) (UniProt Q01727); assay: Agonist activity at mouse MC1R at 100 uM by alphascreen cAMP assay relative to NDP-MSH; details: filed as partial agonist
[7] = target: Melanocyte-stimulating hormone receptor (Mus musculus, UniProt Q01727); assay: Agonist activity at mouse MC1R by alphascreen cAMP assay
[8] = target: Melanocortin receptor 5 (Mus musculus, UniProt P41149); assay: Agonist activity at mouse MC5R by alphascreen cAMP assay
[9] = target: Melanocortin receptor 3 (Mus musculus) (UniProt P33033); assay: Agonist activity at mouse MC3R at 100 uM by alphascreen cAMP assay relative to control
Sequence of Melanocortin receptor 3 (Mus musculus) (P33033 whole entry): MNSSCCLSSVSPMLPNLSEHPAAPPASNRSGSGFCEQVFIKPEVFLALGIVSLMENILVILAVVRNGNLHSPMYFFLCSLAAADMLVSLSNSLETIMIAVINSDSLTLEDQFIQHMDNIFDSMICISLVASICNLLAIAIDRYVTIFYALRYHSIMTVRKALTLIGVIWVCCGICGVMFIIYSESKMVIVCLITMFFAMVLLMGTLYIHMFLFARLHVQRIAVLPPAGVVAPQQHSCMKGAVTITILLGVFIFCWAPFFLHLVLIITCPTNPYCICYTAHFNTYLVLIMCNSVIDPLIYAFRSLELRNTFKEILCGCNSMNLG

T1 sequence (P56450 whole entry): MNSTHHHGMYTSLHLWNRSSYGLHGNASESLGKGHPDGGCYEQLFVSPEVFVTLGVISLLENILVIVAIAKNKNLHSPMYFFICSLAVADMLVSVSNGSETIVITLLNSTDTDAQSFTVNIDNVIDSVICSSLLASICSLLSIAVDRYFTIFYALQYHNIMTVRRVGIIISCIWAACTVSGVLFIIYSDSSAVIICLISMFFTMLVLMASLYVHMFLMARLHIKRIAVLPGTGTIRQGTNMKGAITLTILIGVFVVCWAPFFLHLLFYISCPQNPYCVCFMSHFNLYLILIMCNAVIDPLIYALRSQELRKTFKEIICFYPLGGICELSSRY
Sequence of Melanocyte-stimulating hormone receptor (Q01727 whole entry): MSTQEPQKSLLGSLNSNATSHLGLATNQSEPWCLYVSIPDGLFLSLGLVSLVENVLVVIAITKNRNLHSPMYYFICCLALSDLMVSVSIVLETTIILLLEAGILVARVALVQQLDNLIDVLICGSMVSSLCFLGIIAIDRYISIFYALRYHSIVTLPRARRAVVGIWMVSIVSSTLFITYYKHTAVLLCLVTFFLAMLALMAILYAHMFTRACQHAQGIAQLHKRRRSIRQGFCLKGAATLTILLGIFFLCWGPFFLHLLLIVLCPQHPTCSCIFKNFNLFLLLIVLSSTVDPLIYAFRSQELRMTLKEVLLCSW
Sequence of Melanocyte-stimulating hormone receptor (Mus musculus) (Q01727 whole entry, looked up): as the sequence (Q01727 whole entry) above
T2 sequence (P33033 whole entry): as the sequence (P33033 whole entry) above
Sequence of Melanocortin receptor 5 (P41149 whole entry): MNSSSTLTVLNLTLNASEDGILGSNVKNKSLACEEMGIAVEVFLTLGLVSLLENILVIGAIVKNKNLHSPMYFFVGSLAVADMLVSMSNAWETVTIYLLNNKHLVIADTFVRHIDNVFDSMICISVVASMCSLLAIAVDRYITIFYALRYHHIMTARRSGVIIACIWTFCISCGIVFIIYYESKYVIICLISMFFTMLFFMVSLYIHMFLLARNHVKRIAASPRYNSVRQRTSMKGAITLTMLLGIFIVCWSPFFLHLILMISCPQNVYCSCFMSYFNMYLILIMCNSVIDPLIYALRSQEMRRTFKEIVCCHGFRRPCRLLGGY
Sequence of Melanocortin receptor 5 (Mus musculus) (P41149 whole entry): as above

Question: For `C[C@@H]1NC(=O)[C@H](CC(N)=O)NC(=O)[C@H](Cc2ccccc2)NC(=O)CN(Cc2ccccc2)C(=O)[C@H](CCCNC(=N)N)NC(=O)[C@@H]2CCCN2C(=O)[C@H]2CCCN2C(=O)[C@H](Cc2ccccc2)NC1=O`, which EC50 [1] is on record?
Answer: > 100 µM

Question: What about the Activity ([2]; filed as inverse agonist) of the same molecule?
Answer: 10%

Question: And the Kb [3]?
Answer: > 3.16 µM

Question: What about the EC50 [4] of the same molecule?
Answer: > 100 µM

Question: With `C[C@@H]1NC(=O)CN(CCN)C(=O)[C@H](Cc2ccccc2)NC(=O)[C@H](Cc2ccccc2)NC(=O)[C@H](CCCNC(=N)N)NC(=O)[C@@H]2CCCN2C(=O)[C@H]2CCCN2C(=O)[C@H](Cc2ccccc2)NC1=O` as the molecule, how does the EC50 [1] read?
Answer: > 100 µM

Question: And the Kb [5]?
Answer: 0.126 µM

Question: What about the Activity ([2]; filed as inverse agonist) of the same molecule?
Answer: 10%

Question: And the Kb [3]?
Answer: 0.00398 µM

Question: And the Activity [6]?
Answer: 60%

Question: What about the EC50 [4] of the same molecule?
Answer: > 100 µM

Question: Which results are given for `C[C@@H]1NC(=O)[C@H](CN)NC(=O)[C@H](Cc2ccccc2)NC(=O)[C@H](Cc2ccccc2)NC(=O)CN(CCCNC(=N)N)C(=O)[C@@H]2CCCN2C(=O)[C@H]2CCCN2C(=O)[C@H](Cc2ccccc2)NC1=O` (HELM PEPTIDE1{[N=C(N)NCCCN(CC(=O)[*:2])[*:1]].F.F.[NC[C@H](N[*:1])C(=O)[*:2]].A.F.[dP].P}$PEPTIDE1,PEPTIDE1,1:R1-8:R2$$$V2.0)?
Answer: EC50 [1]: > 100 µM; Kb [5]: 1.26 µM; EC50 [7]: > 100 µM; Kb [3]: > 3.16 µM; EC50 [4]: > 100 µM; EC50 [8]: > 100 µM

Question: What does the source list for `C[C@@H]1NC(=O)[C@H](CN)NC(=O)[C@H](Cc2ccccc2)NC(=O)[C@H](Cc2ccccc2)NC(=O)[C@H](CCCNC(=N)N)NC(=O)[C@@H]2CCCN2C(=O)[C@H]2CCCN2C(=O)[C@H](Cc2ccccc2)NC1=O`?
Answer: Activity [9]: 20%; Activity ([2]; filed as inverse agonist): 10%

Question: Which EC50 [1] does the source give for `C[C@@H]1NC(=O)[C@H](CN)NC(=O)CN(Cc2ccccc2)C(=O)[C@H](Cc2ccccc2)NC(=O)[C@H](CCCNC(=N)N)NC(=O)[C@@H]2CCCN2C(=O)[C@H]2CCCN2C(=O)[C@H](Cc2ccccc2)NC1=O` here?
Answer: > 100 µM

Question: What about the Activity ([2]; filed as inverse agonist) of the same molecule?
Answer: 10%

Question: What about the Activity [6] of the same molecule?
Answer: 60%

Question: And the EC50 [4]?
Answer: > 100 µM

Question: What does the source list for `C[C@@H]1NC(=O)[C@H](CN)NC(=O)[C@H](Cc2ccccc2)NC(=O)CN(Cc2ccccc2)C(=O)[C@H](CCCNC(=N)N)NC(=O)[C@@H]2CCCN2C(=O)[C@H]2CCCN2C(=O)[C@H](Cc2ccccc2)NC1=O`?
Answer: EC50 [1]: > 100 µM; Activity ([2]; filed as partial agonist): 70%; Activity [6]: 80%; EC50 [4]: > 100 µM

Question: Which results are given for `CN1CC(=O)N[C@@H](Cc2ccccc2)C(=O)N2CCC[C@@H]2C(=O)N2CCC[C@H]2C(=O)N[C@@H](CCCNC(=N)N)C(=O)N[C@@H](Cc2ccccc2)C(=O)N[C@@H](Cc2ccccc2)C(=O)N[C@@H](CC(N)=O)C1=O` (HELM PEPTIDE1{P.R.F.F.N.[Sar].F.[dP]}$PEPTIDE1,PEPTIDE1,1:R1-8:R2$$$V2.0)?
Answer: EC50 [1]: > 100 µM; Kb [5]: > 3.16 µM; Kb [3]: > 3.16 µM; EC50 [4]: > 100 µM; EC50 [8]: > 100 µM

Question: For `C[C@@H]1NC(=O)[C@H](CC(N)=O)NC(=O)[C@H](Cc2ccccc2)NC(=O)[C@H](Cc2ccccc2)NC(=O)[C@H](CCCNC(=N)N)NC(=O)[C@@H]2CCCN2C(=O)[C@H]2CCCN2C(=O)CN(Cc2ccccc2)C1=O`, which EC50 [1] is on record?
Answer: > 100 µM

Question: And the Activity ([9]; filed as agonist)?
Answer: 60%

Question: And the Kb [5]?
Answer: > 3.16 µM

Question: What about the Kb [3] of the same molecule?
Answer: > 3.16 µM

Question: And the Activity [6]?
Answer: 85%

Question: And the EC50 [8]?
Answer: > 100 µM

Question: What does the source list for `C[C@@H]1NC(=O)[C@H](CC(N)=O)NC(=O)CN(Cc2ccccc2)C(=O)[C@H](Cc2ccccc2)NC(=O)[C@H](CCCNC(=N)N)NC(=O)[C@@H]2CCCN2C(=O)[C@H]2CCCN2C(=O)[C@H](Cc2ccccc2)NC1=O`?
Answer: EC50 [1]: > 100 µM; Activity ([2]; filed as inverse agonist): 10%; Activity [6]: 70%; EC50 [4]: > 100 µM

Question: `C[C@@H]1NC(=O)[C@H](CN)NC(=O)[C@H](Cc2ccccc2)NC(=O)[C@H](Cc2ccccc2)NC(=O)[C@H](CCCNC(=N)N)NC(=O)[C@@H]2CCCN2C(=O)[C@H]2CCCN2C(=O)CN(Cc2ccccc2)C1=O` was tested. Which EC50 [1] did it give?
Answer: > 100 µM

Question: What about the Kb [5] of the same molecule?
Answer: 3.16 µM

Question: What about the Activity ([2]; filed as inverse agonist) of the same molecule?
Answer: 10%

Question: And the EC50 [7]?
Answer: > 100 µM

Question: And the Kb [3]?
Answer: 0.251 µM

Question: And the EC50 [4]?
Answer: > 100 µM

Question: What does the source list for `C[C@@H]1NC(=O)[C@H](CC(N)=O)NC(=O)[C@H](Cc2ccccc2)NC(=O)[C@H](Cc2ccccc2)NC(=O)CN(CCCNC(=N)N)C(=O)[C@@H]2CCCN2C(=O)[C@H]2CCCN2C(=O)[C@H](Cc2ccccc2)NC1=O` (HELM PEPTIDE1{P.[N=C(N)NCCCN(CC(=O)[*:2])[*:1]].F.F.N.A.F.[dP]}$PEPTIDE1,PEPTIDE1,1:R1-8:R2$$$V2.0)?
Answer: EC50 [1]: > 100 µM; Kb [5]: > 3.16 µM; Kb [3]: > 3.16 µM; Activity [6]: 50%; EC50 [4]: > 100 µM; EC50 [8]: > 100 µM

Question: What does the source list for `CN1CC(=O)N[C@@H](Cc2ccccc2)C(=O)N2CCC[C@@H]2C(=O)N2CCC[C@H]2C(=O)N[C@@H](CCCNC(=N)N)C(=O)N[C@@H](Cc2ccccc2)C(=O)N[C@@H](Cc2ccccc2)C(=O)N[C@@H](CN)C1=O`?
Answer: EC50 [1]: > 100 µM; Kb [5]: 2.51 µM; EC50 [7]: > 100 µM; Kb [3]: 0.794 µM; EC50 [4]: > 100 µM; EC50 [8]: > 100 µM

Reference: ChEMBL document CHEMBL4725440, “Peptoid NPhe in AGRP-Based c[Pro-Arg-Phe-Phe-Xxx-Ala-Phe-DPro] Scaffolds Maintain Mouse MC4R Antagonist Potency” (ACS Med Chem Lett, 2020)
